Assay results as given in patent US20170298056A1, “SMALL MOLECULE INHIBITORS OF HIV-1 ENTRY AND METHODS OF USE THEREOF” (Dana-Farber Cancer Institute, Inc., priority 2014, published 2017).
Like-named read-outs stand apart in the source and are kept apart here.

What was measured:
[1] = tested on: HIV-1JR-FL gp120; experiment: ELISA, binding of monoclonal antibodies to gp120 in presence of compound; conditions: preincubation of gp120 with 18A
Method: Enzyme-linked immunosorbent assay (ELISA). […] Wells were blocked with blocking buffer (5% nonfat dry milk (Bio-Rad) in PBS) for 2 hours and then washed twice with PBS. Between 0.25 and 0.5 μg of purified HIV-1JR-FL gp120 in blocking buffer was added to each well; the plate was incubated for 60 minutes and washed thrice with PBS. […] The plate was incubated for a further 30 minutes and washed thrice with 0.05% Tween in PBS and thrice with PBS. […] The plate was incubated for 30 minutes, washed three times with 0.05% Tween in PBS and three times with PBS, as before, and 80 μl of SuperSignal chemiluminescent substrate (Pierce) was added to each well. The relative light units in each well were measured for 2 sec with a Centro LB 960 luminometer (Berthold Technologies). All procedures were performed at room temperature. Cellbased ELISA was performed.

[2] = tested on: CCR5; experiment: Binding of soluble gp120 to Cf2Th-CCR5 cells (flow cytometry); design: species or system human; conditions: absence and presence of soluble CD4
Method: Binding of soluble JR-FL gp120 to CCR5 was tested by incubating 1 million Cf2Th-CCR5 cells with 20 μg/mL purified gp120 in the presence or absence of 20 μg/mL sCD4 for 1 hour. After two washes, the cells were incubated with the 2G12 antibody followed by Allophycocyanin-conjugated F(ab′)2 fragment donkey anti-human IgG antibody to detect bound gp120. The cells were analyzed by FACS. All procedures were performed at room temperature.

[3] = tested on: HIV-1JR-FL; experiment: Viral infection assay, recombinant HIV-1 pseudotyped with JR-FL Env (wild type and mutants), Cf2Th-CD4/CCR5 cells; type: cell-based; conditions: for Fold change: mutant/wild-type IC50
From the text: HIV-1 Env mutants. Mutations were introduced into the plasmid expressing the fulllength HIV-1YU2 or HIV-1JR-FL Envs using the QuikChange II site-directed mutagenesis protocol or the QuikChange multi site-directed mutagenesis kit (Stratagene). The presence of the desired mutations was confirmed by DNA sequencing. All HIV-1 Env residues are numbered based on alignment with the HXBc2 prototypic sequence, according to current convention.
Production of recombinant HIV-1 expressing luciferase. […] After 48 hours, the supernatant was collected, buffered with 50 mM Hepes pH 7.4 (final concentration) and centrifuged for 5 minutes at 750×g and 4° C. The virus-containing supernatant was used directly or frozen at −80° C.
Viral infection assay. Each test compound was serially diluted in DMSO in a 96-well B&W isoplate (PerkinElmer, Boston, Mass.) using an HP D300 Digital Dispenser, to a final volume of 450 nl. DMSO was used as a control. Viruses pseudotyped with a specific Env were added to each well and incubated briefly at room temperature. Cf2Th-CD4/CCR5 cells were detached with StemPro Accutase Cell Dissociation Reagent (Invitrogen, cat #A11105-01), washed once, and 5000 cells were added to each well. […] Following incubation, the medium was aspirated and cells were lysed with 30 μl of Passive Lysis Buffer (Promega, cat #E1941). The activity of the firefly luciferase, which was used as a reporter protein in the system, was measured with a Centro LB 960 luminometer (Berthold Technologies, Oak Ridge, Tenn.). One hundred microliters of assay buffer (15 mM MgSO4, 15 mM KH2PO4/K2HPO4 pH 7.8, 1 mM ATP and 1 mM DTT) was injected to each well, followed by a 50 μl injection of 1 mM Dluciferin potassium salt (BD Pharmingen, San Jose, Calif.); luminescence was measured for 2 sec. Infection of PBMC was done as above, but 20,000-40,000 cells/well and viruses concentrated by ultracentrifugation were used. After four hours of incubation with viruses, the cells were centrifuged at 200×g for 6 minutes at 4° C., resuspended in 100 μl RPMI-PBMC medium and incubated at 37° C. for an additional 36-40 hours (total 40-44 hours). Supernatant was removed after centrifugation at 400×g for 5 minutes and cells were processed to detect luciferase activity, as described above.

Q: How did the “binding of E51, 17b and 412d (CD4i) antibodies to gp120” value [1] turn out when `O=C(N/N=C/c1ccc(O)cc1)Nc1cccc2nsnc12` [Compound 18A] was run?
A: modest but reproducible decrease

Q: What about the “binding of most monoclonal antibodies to gp120” value [1] of the same compound?
A: not affected

Q: What about the “effect on gp120 binding to CCR5” value [2] of the same compound?
A: No effect

Q: What about the IC50 ([3]; Example 8 table, read-out: IC50 (JR-FL)) of the same compound?
A: 3.6 µM

Q: And the Fold change ([3]; JR-FL Env D167A)?
A: 1.5

Q: And the IC50 ([3]; JR-FL Env D167A, read-out: IC50)?
A: 5.3 ± 1.5 µM

Q: What about the Fold change ([3]; JR-FL Env E153A) of the same compound?
A: 0.9

Q: What about the IC50 ([3]; JR-FL Env E153A, read-out: IC50) of the same compound?
A: 3.1 ± 0.7 µM

Q: What about the Fold change ([3]; JR-FL Env E168K + N188A) of the same compound?
A: 0.7

Q: What about the Fold change ([3]; JR-FL Env I109W) of the same compound?
A: 0.4

Q: And the IC50 ([3]; JR-FL Env I109W, read-out: IC50)?
A: 1.6 ± 0.8 µM

Q: And the Fold change ([3]; JR-FL Env I154A)?
A: 4.8

Q: And the IC50 ([3]; JR-FL Env I154A, read-out: IC50)?
A: 17.1 ± 0.9 µM

Q: What about the Fold change ([3]; JR-FL Env I194A) of the same compound?
A: 0.5

Q: And the IC50 ([3]; JR-FL Env I194A, read-out: IC50)?
A: 1.8 ± 0.4 µM

Q: What about the Fold change ([3]; JR-FL Env I424A) of the same compound?
A: 4.5

Q: And the IC50 ([3]; JR-FL Env I424A, read-out: IC50)?
A: 16.2 ± 2 µM

Q: What about the Fold change ([3]; JR-FL Env K155A) of the same compound?
A: 0.6

Q: And the IC50 ([3]; JR-FL Env K155A, read-out: IC50)?
A: 2.1 ± 0.9 µM

Q: And the Fold change ([3]; JR-FL Env K178A)?
A: 0.4

Q: And the IC50 ([3]; JR-FL Env K178A, read-out: IC50)?
A: 1.6 ± 0.3 µM

Q: And the Fold change ([3]; JR-FL Env L175A)?
A: 2.1

Q: And the IC50 ([3]; JR-FL Env L175A, read-out: IC50)?
A: 7.7 ± 1.2 µM

Q: And the Fold change ([3]; JR-FL Env L179G)?
A: 1.8

Q: And the IC50 ([3]; JR-FL Env L179G, read-out: IC50)?
A: 6.5 ± 0.7 µM

Q: What about the Fold change ([3]; JR-FL Env L193A) of the same compound?
A: 5.0

Q: And the IC50 ([3]; JR-FL Env L193A, read-out: IC50)?
A: 18.1 ± 2 µM

Q: What about the Fold change ([3]; JR-FL Env M147A) of the same compound?
A: 1.3

Q: And the IC50 ([3]; JR-FL Env M147A, read-out: IC50)?
A: 4.8 ± 1.2 µM

Q: And the Fold change ([3]; JR-FL Env M434A)?
A: 5.0

Q: What about the IC50 ([3]; JR-FL Env M434A, read-out: IC50) of the same compound?
A: 17.9 ± 1.2 µM

Q: What about the Fold change ([3]; JR-FL Env N136A) of the same compound?
A: 0.5

Q: What about the IC50 ([3]; JR-FL Env N136A, read-out: IC50) of the same compound?
A: 1.8 ± 0.1 µM

Q: What about the Fold change ([3]; JR-FL Env N139A) of the same compound?
A: 0.5

Q: What about the IC50 ([3]; JR-FL Env N139A, read-out: IC50) of the same compound?
A: 1.9 ± 0.2 µM

Q: And the Fold change ([3]; JR-FL Env N141A)?
A: 0.5

Q: What about the IC50 ([3]; JR-FL Env N141A, read-out: IC50) of the same compound?
A: 1.7 ± 0.3 µM

Q: And the Fold change ([3]; JR-FL Env N156A)?
A: 5.2

Q: What about the IC50 ([3]; JR-FL Env N156A, read-out: IC50) of the same compound?
A: 18.7 ± 1.5 µM

Q: What about the Fold change ([3]; JR-FL Env N187A + N188A) of the same compound?
A: 0.7

Q: What about the Fold change ([3]; JR-FL Env N188A) of the same compound?
A: 1.2

Q: And the IC50 ([3]; JR-FL Env N188A, read-out: IC50)?
A: 4.2 ± 0.8 µM

Q: What about the Fold change ([3]; JR-FL Env Q114E) of the same compound?
A: 0.9

Q: What about the IC50 ([3]; JR-FL Env Q114E, read-out: IC50) of the same compound?
A: 3.4 ± 0.6 µM

Q: What about the Fold change ([3]; JR-FL Env Q422A) of the same compound?
A: 2.2

Q: And the IC50 ([3]; JR-FL Env Q422A, read-out: IC50)?
A: 7.8 ± 1.7 µM

Q: And the Fold change ([3]; JR-FL Env R166A)?
A: 0.8

Q: What about the IC50 ([3]; JR-FL Env R166A, read-out: IC50) of the same compound?
A: 2.9 ± 0.6 µM

Q: And the Fold change ([3]; JR-FL Env T143A + S146A)?
A: 0.7

Q: What about the Fold change ([3]; JR-FL Env T163A + S164A) of the same compound?
A: 0.8

Q: What about the Fold change ([3]; JR-FL Env V134A) of the same compound?
A: 0.8

Q: What about the IC50 ([3]; JR-FL Env V134A, read-out: IC50) of the same compound?
A: 2.8 ± 2.1 µM

Q: What about the Fold change ([3]; JR-FL Env V430S) of the same compound?
A: 0.2

Q: What about the IC50 ([3]; JR-FL Env V430S, read-out: IC50) of the same compound?
A: 0.7 ± 0.3 µM

Q: What about the Fold change ([3]; JR-FL Env W112A) of the same compound?
A: 0.8

Q: And the IC50 ([3]; JR-FL Env W112A, read-out: IC50)?
A: 2.8 ± 0.7 µM

Q: What about the Fold change ([3]; JR-FL Env W479A) of the same compound?
A: 0.2

Q: And the IC50 ([3]; JR-FL Env W479A, read-out: IC50)?
A: 0.8 ± 0.2 µM

Q: What about the Fold change ([3]; JR-FL Env Y173A) of the same compound?
A: 0.9

Q: What about the IC50 ([3]; JR-FL Env Y173A, read-out: IC50) of the same compound?
A: 3.1 ± 1.2 µM

Q: What about the Fold change ([3]; JR-FL Env Y177A) of the same compound?
A: 2.8

Q: What about the IC50 ([3]; JR-FL Env Y177A, read-out: IC50) of the same compound?
A: 10.2 ± 1 µM

Q: And the Fold change ([3]; JR-FL Env Y435A)?
A: 3.5

Q: What about the IC50 ([3]; JR-FL Env Y435A, read-out: IC50) of the same compound?
A: 12.7 ± 3.5 µM

Q: And the IC50 ([3]; JR-FL Env double mutant E168K + N188A, read-out: IC50)?
A: 2.4 ± 1.4 µM

Q: What about the IC50 ([3]; JR-FL Env double mutant N187A + N188A, read-out: IC50) of the same compound?
A: 2.5 ± 0.6 µM

Q: What about the IC50 ([3]; JR-FL Env double mutant T143A + S146A, read-out: IC50) of the same compound?
A: 2.4 ± 0.2 µM

Q: And the IC50 ([3]; JR-FL Env double mutant T163A + S164A, read-out: IC50)?
A: 2.7 ± 0.3 µM

Q: What about the Fold change ([3]; JR-FL Env wild type) of the same compound?
A: 1

Q: What about the IC50 ([3]; JR-FL Env wild type, read-out: IC50) of the same compound?
A: 3.6 µM

Q: What about the “Therapeutic Index (TI)” value ([3]; calculated from IC50 against JR-FL and A-MLV) of the same compound?
A: 15.9

Q: And the “effect of glycosidase inhibitor treatment of virions on 18A inhibition” value ([3]; virions produced in the presence of two glycosidase inhibitors)?
A: Neither treatment had a significant effect
